Read-outs that look alike come from different tables or passages of the source.
How the values were obtained:
Type in all cases: biochemical
[1] = molecular target: T1, Leishmania donovani nucleoside hydrolase (LdNH) (Leishmania donovani, UniProt Q8WQX2); test: HPLC-DAD inosine hydrolysis assay with immobilized purified LdNH plus […] Triton X-100; also AS-MS (affinity ratio […])
T1 construct: gene iunh
T1 sequence (Q8WQX2 1-314): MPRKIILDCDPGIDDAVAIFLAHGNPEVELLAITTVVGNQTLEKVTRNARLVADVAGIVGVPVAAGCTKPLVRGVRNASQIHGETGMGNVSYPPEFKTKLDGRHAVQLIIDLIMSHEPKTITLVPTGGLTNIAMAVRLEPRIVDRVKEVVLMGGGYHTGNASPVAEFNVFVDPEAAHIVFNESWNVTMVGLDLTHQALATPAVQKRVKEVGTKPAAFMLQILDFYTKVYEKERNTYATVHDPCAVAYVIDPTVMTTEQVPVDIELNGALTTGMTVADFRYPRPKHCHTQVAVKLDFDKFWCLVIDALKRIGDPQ

[2] = molecular target: T1, Leishmania donovani nucleoside hydrolase (LdNH); test: HPLC-DAD inosine hydrolysis assay with immobilized LdNH, single concentration […] with Triton X-100; also AS-MS (affinity ratio […]); details: read-out: inhibition at 100 μmol/L (with Triton X-100) (%)
[3] = molecular target: T1, Leishmania donovani nucleoside hydrolase (LdNH); test: as above; details: read-out: inhibition at 100 μmol/L (with Triton X-100) (%); remark: listed apart in the source
[4] = molecular target: T1, Leishmania donovani nucleoside hydrolase (LdNH); test: HPLC-DAD inosine hydrolysis assay with immobilized purified LdNH plus […] Triton X-100; also AS-MS (affinity ratio […]); remark: listed apart in the source

SMILES: O=c1c(O[C@@H]2O[C@H](CO)[C@@H](O)[C@H](O)[C@H]2O)c(-c2ccc(O)cc2)oc2cc(O)cc(O)c12 [astragalin]
- IC50 [1]: 41.6 ± 8.9 µM

SMILES: O=c1cc(-c2ccc(O)c(O)c2)oc2c([C@@H]3O[C@H](CO)[C@@H](O)[C@H](O)[C@H]3O)c(O)cc(O)c12 [orientin]
- inhibition at 100 µM [2]: 30.4%

SMILES: C[C@@H]1O[C@@H](OC[C@H]2O[C@@H](Oc3c(-c4ccc(O)c(O)c4)oc4cc(O)cc(O)c4c3=O)[C@H](O)[C@@H](O)[C@@H]2O)[C@H](O)[C@H](O)[C@H]1O [rutin]
- inhibition at 100 µM [3]: 61.2%

SMILES: O=c1c(O[C@@H]2O[C@H](CO)[C@@H](O)[C@H](O)[C@H]2O)c(-c2ccc(O)c(O)c2)oc2cc(O)cc(O)c12 [isoquercetin]
- IC50 [4]: 40.2 ± 16.6 µM
